Here are results for 90 molecules from a melting point compilation (Tetko et al.; mined from patent text by program, amines drawn as free bases though some values may be those of a salt).

Bounds are passed on as bounds.

Molecule `Cc1cc(NC(=O)C(=O)N2C(C)COCC2C)cc(C)c1S(=O)(=O)C[N+](=O)[O-]` (stereo not given) registered a melting point of 140 to 141 °C.
The result for `N#Cc1nn(-c2c(Cl)cc(C(F)(F)F)cc2Cl)cc1C1CC(F)(F)C1` reads 128 to 129 °C; that for `Cc1[nH]c(=O)c(C#N)cc1C(=O)CBr`, 212 to 214 °C; that for `O=C(O)c1ccc(S(=O)(=O)Nc2cc3c4c(c2)CCCC4CCC3)cc1`, 266 to 268 °C.
The result for `CC(C)Oc1ccccc1-c1ccoc1C(=O)NNC(=O)c1ccc(O)c(C#N)c1` reads 128 to 130 °C; that for `CN(C)c1ccc(C=CC(=O)C=Cc2ccc(N(C)C)cc2)cc1`, 174 to 176 °C; that for `OC(CCc1cccnc1)COc1ccc(CCc2ccccc2)cc1` (stereo not given), 95 to 96 °C.
The result for `CC(C)Oc1cc(-n2nc(C(F)(F)F)[nH]c2=O)c(Cl)cc1Cl` reads 160 to 161 °C.
In the case of `Nc1nc(OCCc2ccc(Cl)cc2)nc2c1ncn2C1OC(CO)C(O)C1O` (stereo not given), the melting point is 156 to 159 °C.
The result for `O=C(Nc1nccs1)c1nc(-c2ccc(N3CCC(N4CCOCC4)CC3)cc2)[nH]c1-c1ccc(Cl)cc1` reads 165 to 170 °C.
As for `CCOCCCOc1ccc2c(c1)C(N(C)S(C)(=O)=O)CC(C)(C)O2` (stereo not given), the figure is 61 to 63 °C; as for `COc1ccc(C(=CN2CCNC2=O)c2ccccc2)cc1OC`, 155 °C.
As for `CNC(=O)[C@@H](NC(=O)[C@@H](CC(=O)O)n1ccc(-c2ccc(C#N)cc2)c1)C(C)(C)C`, the figure is 138 to 140 °C; as for `O=c1[nH]c2cc(-c3ncc[nH]3)c([N+](=O)[O-])cc2[nH]c1=O`, more than 300 °C.
Take `O=c1cc(-c2ccccc2)cc(-c2ccccc2)[nH]1`: the melting point lay in the range of 209 to 212 °C.
As for `NC(=O)c1nn(-c2ccc(S(N)(=O)=O)cc2)c2ccncc12`, the figure is 301 to 302 °C.
As for `COC(=O)c1cc(C)nn1-c1ncc(Cl)cc1Cl`, the figure is 97 to 98 °C.
As to `COc1ccc(-c2cc3ccc(C)cc3[nH]2)cc1`, the melting point was 220 °C.
`COc1cc(NC(=O)Nc2ccc(C3CCN(C(=O)Nc4ccc(OCC(O)CO)cc4Cl)CC3)cc2)cc(OC)c1` (stereo not given) displayed a melting point of 105 to 108 °C.
As for `CCOC(=O)/C=C/c1cc(OCc2ccccc2)ccc1Br`, the figure is 72 to 74 °C.
The molecule `CSC1=NC2=NC3=C(CN(Cc4ccccc4)CC3=O)CN2N1` returned a melting point of 245 to 247 °C.
As for `ClCc1nc2ccccc2s1`, the figure is 34 °C.
The result for `CCOC(=O)CCC(=O)c1ccc(O)c(O)c1` reads 116 to 117 °C; that for `CC1CNCCC1n1c(=O)[nH]c2cc(Cl)ccc21` (stereo not given), 199 °C; that for `N#CCc1ccc(-c2onc3ccccc23)cc1`, 118 to 121 °C.
As for `CS(=O)(=O)c1ccc(C=Cc2ccc(NCCCCCCO)cc2)cc1`, the figure is 113 to 115 °C; as for `COC(=O)c1[nH]c2cc(C)c(C)cc2c1-c1ccc(O)cc1`, 247 to 248 °C; as for `C=C(C)COc1cc2c(c(C)c1C)N(C=O)CC2`, 81 to 83 °C.
Consider `COc1ccc(Cl)cc1C(=O)NCCc1ccc(-c2ccc(OC(C)C(=O)O)cc2)cc1` (stereo not given), for which the melting point turned out to be 145 °C.
`CC(C)N1C(=O)N(c2ccc(C#N)c(C(F)(F)F)c2)C(=O)C1(CO)CO` showed a melting point of 172 to 173 °C.
As for `CC1(C(O)CBr)COc2cc(Cl)ccc2O1` (stereo not given), the figure is 133 to 135 °C; as for `CC(C)(C)c1cc(C=C2CCN(CCO)C2=O)cc(C(C)(C)C)c1O`, 191 °C; as for `CN1CCC(=C2c3c(ccn3C)CCn3cnnc32)CC1`, 214 °C.
As for `CCCc1cc(-c2noc3cc(O)ccc23)c(CC)cc1O`, the figure is 125 to 127 °C; as for `Cc1c(CO)oc2ccc(Cl)cc12`, 112 to 113 °C.
The result for `O=c1oc2c(c(O)c1C(c1ccccc1)C1CC1)CCCCCC2CC1CCCCO1` (stereo not given) reads 88 to 93 °C; that for `O=C(c1ccc2nonc2c1)N1C2CCC1COC2`, 139 to 140 °C; that for `Cc1nnc2n1-c1sc(Cl)cc1C(c1ccccc1F)=NC2`, 187 to 189 °C.
`CCn1nc2c(N)nc3ccccc3c2c1CC1(F)CCN(S(C)(=O)=O)CC1` showed a melting point of 269 to 271 °C.
The result for `O=Cc1cc(-c2ccc(Cl)cc2Cl)ccc1OC(F)(F)F` reads 62 to 63 °C; that for `COc1ccc(Cl)c2nc(SCc3ccccc3)nn12`, 90 to 91 °C.
As for `COc1cc2cc(-c3cccnc3)nc(-c3ccccc3)c2cc1OC`, the figure is 176 to 177 °C.
Molecule `CC(=O)OCC(CO)CCn1cnc2c(=O)[nH]c(N)nc21` (stereo not given) registered a melting point of 194 to 200 °C.
`CN(C)N=C(O)c1cc(C(=N)O)c(C(=O)O)cc1C(=O)O` registered a melting point of 293 to 295 °C.
Molecule `CCCC(=NOCC)C1=C(O)CC(C2(C)CC(C(C)C)=NO2)CC1=O` (stereo not given) displayed a melting point of 85 °C.
The result for `COc1ccc(-c2coc3ccc(-c4nnc(SCc5cccc(C)c5)o4)cc23)cc1` reads 123 to 124 °C.
As for `Nc1nsc2nc3ccccc3n12`, the figure is 255 to 256 °C; as for `CC(C)N(CCC(CCN(C)C1CCCCC1)(C(N)=O)c1ccccc1)C(C)C` (stereo not given), 90 to 91 °C; as for `CCCCc1nc2cccc(CC(=O)O)c2n1Cc1ccc(-c2ccccc2-c2nnn[nH]2)cc1`, 170 to 171 °C.
As for `CON=CC(C)(C#N)NC(=O)C(Oc1ccc2ncc(Br)cc2c1)SC` (stereo not given), the melting point is 138 to 145 °C.
As for `O=C1COc2ccc(C3=CN=C(c4ccccc4)SC3c3ccccc3)cc2N1` (stereo not given), the figure is 231 to 233 °C; as for `Cc1nc(NCCc2ccccc2)c2c(n1)N(c1ccccc1)C(=O)C2`, 81 to 84 °C; as for `Oc1cccc(CN2CCCCC2c2nc(-c3ccccc3)c(-c3ccccc3)o2)c1` (stereo not given), 205 to 208 °C.
As for `Cc1ccc(Cl)c(Nc2ccccc2C(=O)CS(C)=O)c1Cl` (stereo not given), the figure is 152 to 154 °C.
The result for `CCOc1cccc(-c2nn(C(C)c3oc4ccccc4c(=O)c3-c3cccc(F)c3)c3ncnc(N)c23)c1` (stereo not given) reads 162 to 165 °C; that for `COc1ccc(F)cc1C(C)(C)CC(=O)C(=O)Nc1ccc2c(=O)onc(C)c2c1`, 171 to 173 °C; that for `CCCCCCCCCCCc1coc(N)n1`, 55 to 58 °C.
In turn, `CC(C)Nc1cc(Cl)nc(Cl)n1` showed a melting point of 69 to 70 °C.
The result for `O=c1cc(C2CCc3ccccc3C2)[nH]c2ccccc12` (racemic) reads more than 300 °C; that for `O=[N+]([O-])c1ccc(C2OCc3cc(Br)ccc3O2)cc1` (stereo not given), 163 to 164 °C; that for `COc1ccc(C(O)(c2ccc3c(c2)c(-c2cccc(Cl)c2)nc2nnnn23)c2cncn2C)cc1` (stereo not given), 200 °C.
Take `CCCCCC(C)(C)NC(=O)c1nn(-c2ccc(F)cc2F)c2c1C1CCC2C1` (stereo not given): the melting point was in the range of 76 to 78 °C.
Turning to `Cc1c(-c2cn(C)c3c(-c4ccccc4)cccc23)nc2ccc(F)cc2c1C(=O)O`, the melting point lay in the range of 107 to 108 °C.
The result for `CC1CC(=O)c2cc(N)c(F)cc2O1` (stereo not given) reads 135 to 138 °C; that for `CCCCCc1cnc(N2CCC(c3ccc(COc4ccc(C#N)c(F)c4)nc3)CC2)nc1`, 92 to 94 °C.
The result for `CC(C)(C)OC(=O)N1C(=O)C(Br)=C(c2cn(C(=O)OC(C)(C)C)c3cc(OCc4ccccc4)ccc23)C1=O` reads 120 °C; that for `Cc1ccc(C(OS(C)(=O)=O)(C(F)(F)F)C(F)(F)F)cc1C(OS(C)(=O)=O)(C(F)(F)F)C(F)(F)F`, 107 °C.
The result for `COC(=O)c1cncc(NC(=O)C(C)CS)c1` (stereo not given) reads 96 to 97 °C; that for `CN1C(=O)[C@H](NC(=O)CNc2ccc(C(F)(F)F)cc2)N=C(c2ccccc2)c2ccccc21`, 218 to 219 °C.
In the case of `CC1(C)COC(c2ccccc2)(c2ccc(N)c([N+](=O)[O-])c2)OC1`, the melting point came out at 140 °C.
The result for `O=c1[nH]c2cc(C(F)(F)F)c(N3CCOCC3)cc2n2c(=O)[nH]nc12` reads more than 300 °C; that for `CCCCCCCCc1ccc(CCC(CO)(CO)NC(C)=O)cc1`, 66 to 68 °C.
The result for `CCn1ncc2nc(C(=O)O)c(C)nc21` reads 148 to 149 °C; that for `Brc1ccc(-c2cn([C@H]3CN4CCC3CC4)nn2)o1`, 144 °C; that for `O=[N+]([O-])c1cc(SC(F)(F)F)[nH]c1-c1ccc(Cl)cc1`, 143 to 145 °C.
Molecule `CCOC(=O)c1cn(C2CC2)c2c(C)c(N3CCN(C)CC3)c(F)c(C)c2c1=O` came in with a melting point of 146 to 147 °C.
`c1ccc(-c2ccc3c(CCN4CCCCC4)c(-c4ccccc4)[nH]c3c2)cc1` registered a melting point of 129 to 131 °C.
As for `C[C@](O)(COc1ccc(Cl)c(F)c1)C(=O)Nc1ccc(C#N)c(C(F)(F)F)c1`, the figure is 132 to 134 °C; as for `CCOC(=O)C1(Cl)C(=O)N2CCOc3cc(Cl)cc1c32` (stereo not given), 147 to 148 °C.
The result for `CC(C)(C)Cc1ccc(C#N)c(=O)[nH]1` reads 211 to 212 °C.
The result for `ClCCOc1ccc(Cl)c2[nH]ccc12` reads 68 to 72 °C.
`COc1ccc(S(=O)(=O)Nc2cccc(Cl)c2/C=C/c2ccncc2)cc1` had a melting point of 188 to 190 °C.
Regarding `CCC(=O)Oc1ccc2c(c1)CCC1C2CCC2(C)C1CC(O)C2NC` (stereo not given), the melting point was in the range of 182 to 185 °C.
The result for `Cc1cc(C)cc(C#N)c1` reads 51 to 52 °C.
As to `CCCCCc1ccc(-c2ccc(CCc3ccc(OCC)cc3)cc2)cc1`, the melting point worked out at 81 °C.
As for `CC(C)n1c(=O)n(C)c(=O)c2c(S(=O)(=O)CCCO)n(C3Cc4ccccc4C3)cc21`, the figure is 171 to 172 °C; as for `COC(=O)Cc1cn(Cc2ccc(OCc3ccccc3)cc2)nc1-c1ccc(F)cc1`, 58 to 59 °C; as for `O=[N+]([O-])C=C(Cl)SCCCNS(=O)(=O)c1ccccc1`, 105 to 106 °C.
The result for `O=C(O)c1nn(-c2ccc(Cl)cc2Cl)c2c1SCc1cc(Cl)ccc1-2` reads 262 °C; that for `COc1ccccc1C1(CC(=O)O)C(=O)Nc2ccc(Cl)cc21` (stereo not given), 135 to 139 °C.

By melting point is commonly meant the temperature of the solid-liquid transition.
